Laboratory results published in patent publication US20240148745A1, “COMPOUNDS FOR USE IN PROGRESSIVE MULTIPLE SCLEROSIS” (FONDAZIONE CENTRO SAN RAFFAELE, priority 2021, published 2024).
Structures can show the parent of a compound that is named as a salt.

Test system: rat oligodendrocyte progenitor CG4 line
Test: Differentiation assay on rat oligodendrocyte progenitor CG4 line (HCS, mCherry+)
Type: cell-based
Conditions: secondary screen of 49 selected compounds, 1 μM, 5 days
Description: Primary validation on CG4 line toxicity and differentiation. An innovative OPC line was developed for fast and reliable high content screening (HCS) of small compounds inducing oligodendrocyte differentiation. The line was genetically engineered by lentiviral transduction of rat CG4 cells (PubMed=1613821; DOI=10.1002/jnr.490310125; Louis J. C., Magal E., Muir D., Manthorpe M., Varon S.; CG-4, a new bipotential glial cell line from rat brain, is capable of differentiating in vitro into either mature oligodendrocytes or type-2 astrocytes. J. Neurosci. Res. 31:193-204(1992) to express mCherry fluorescent reporter (Evercooren, Anne & Avellana-Adalid, V. & Vitry, Sandrine & Nait-Oumesmar, Brahim & Lachapelle, Francois. (1997). Expansion of Oligodendrocyte Progenitors for Myelin Repair. 10.1007/978-1-4615-5949-8_21) in mature oligodendrocytes only, and EGFP at all stage of the oligodendroglial lineage: both the generation of mature oligodendrocytes (wmNl-mCherry) and the morphological changes associated with differentiation (CMV-EGFP) can be therefore monitored in a single assay. mCherry expression occurred only in O4+/GalC+ differentiated oligodendrocytes and GFP was ubiquitously expressed at all developmental stages. The line so obtained was validated using compounds with well-established effects on oligodendrocyte differentiation (cAMP and T3). Cell-based assay was standardized on the HCS platform (ArrayScanXTI, Brain and Spine Institute (Paris), validating the pro-differentiation effects of clemastine^27 and 9cis-retinoic acid.^28 For HCS validation of 274 compounds identified through in silico screen, double-fluo CG4 line cells were plated in 96 well-plates, 6500 cells/cm^2 and left for 24 h in proliferation. The other day, compounds were added (1 μM) for next 5 days of differentiation, with ⅔ medium changed after 3 days. 9-cis Retinoic Acid (9cis-RA; […]) served as a positive control, negative controls were basal (N1) medium and vehicle (basal+0.1% DMSO). Each compound was tested in triplicate and were imaged with ArrayScanXTI system (35 fields/well) after 5 days of differentiation.
FIG. 4 provides a schematic representation of High Content Screening (HCS) validation of the 274 compounds identified through in silico screening using CG4 line. […] In addition, the whole short list of 160 non-toxic compounds were screened using the CG4 high content phenotypic assay to further confirm the data from primary screening and to potentially select additional compounds with pro-myelinating activities. From this screening of the short list, 49 hit compounds were identified that increase differentiation either of CG4 cells or primary OPCs (FIG. 6).

| Compound | CG4 differentiation compared with 9cis-RA positive control |
| --- | --- |
| COCCOc1cnc2ccn([C@H](C)c3nnc4c(F)cc(-c5cnn(C)c5)cn34)c(=O)c2c1 [AMG-337] | promoting differentiation significantly higher than 9cis-RA positive control |
| CN(C(=O)C(c1ccccc1)c1ccccc1)[C@H](CN1CC[C@H](O)C1)c1ccccc1 [ASIMADOLINE] | promoting differentiation significantly higher than 9cis-RA positive control |
| Cc1ccc(C(=O)NC2CC2)cc1-n1ncc(C(=O)c2cccc(C#N)c2)c1N [Acumapimod] | promoting differentiation significantly higher than 9cis-RA positive control |
| C[N+](C)(C)CCOP(=O)([O-])OC[C@H](O)CO [CHOLINE ALFOSCERATE] | promoting differentiation significantly higher than 9cis-RA positive control |
| Cc1cc(Oc2ccc3nc(COc4ccc(CC5SC(=O)NC5=O)cc4)n(C)c3c2)cc(C)c1N (centres unmarked) [Efatutazone hydrochloride, Efatutazone Hydrochloride] | promoting differentiation significantly higher than 9cis-RA positive control |
| O=c1oc2c(O)c(O)cc3c(=O)oc4c(O)c(O)cc1c4c23 [Ellagic Acid] | promoting differentiation significantly higher than 9cis-RA positive control |
| Cc1cc(Nc2cc(CN3CCOCC3)c3nc(C)c(Cc4ccc(Cl)cc4F)n3n2)n[nH]1 [GANDOTINIB, Gandotinib] | promoting differentiation significantly higher than 9cis-RA positive control |
| O=C1NC(=O)C(c2cnc3ccccn23)=C1c1cn2c3c(cc(F)cc13)CN(C(=O)N1CCCCC1)CC2 [LY-2090314] | promoting differentiation significantly higher than 9cis-RA positive control |
| CCCc1nc(C(F)(F)F)ccc1/C=C/C(=O)N[C@H](C)c1cc(F)c(NS(C)(=O)=O)c(F)c1 [PAC-14028] | promoting differentiation significantly higher than 9cis-RA positive control |
| CNC(=O)c1cc(Oc2ccc(NC(=O)Nc3cc(C(C)(C)C)nn3-c3ccc4ncccc4c3)c(F)c2)ccn1 [REBASTINIB] | promoting differentiation significantly higher than 9cis-RA positive control |
| Cc1cncc(CN2CCC(=C3c4ccc(Cl)cc4CCc4cccnc43)CC2)c1 [Rupatadine] | promoting differentiation significantly higher than 9cis-RA positive control |
| O=C(O)Cn1c2c(c3cc(F)ccc31)CN(C(=O)c1cccc3ccccc13)CC2 [SETIPIPRANT] | promoting differentiation significantly higher than 9cis-RA positive control |
| C[C@]12CCC(=O)C[C@@H]1CC[C@@H]1[C@@H]2CC[C@]2(C)[C@@H](O)CC[C@@H]12 [STANOLONE] | promoting differentiation significantly higher than 9cis-RA positive control |
| CN(C(=O)c1ccc(F)cc1C(F)(F)F)C1CCN(c2nnc(-c3ccnn3C)c3ccccc23)CC1 [Taladegib] | promoting differentiation significantly higher than 9cis-RA positive control |
